From ChEMBL document CHEMBL3885881, “DrugMatrix”

Species on record: Rattus norvegicus
Assay: DrugMatrix - Regimen: Daily Repeat
Type: toxicity, organism-based, Sprague-Dawley
Design: regimen Daily Repeat, gender Male, age 6-8 weeks
Conditions: in vivo, po, 100 mg/kg, route oral GAVAGE, […]; for ABSOLUTE BASOPHIL / ABSOLUTE EOSINOPHIL / ABSOLUTE LYMPHOCYTE / ABSOLUTE MONOCYTE / ABSOLUTE SEGMENTED NEUTROPHIL / BASOPHIL / EOSINOPHIL / ERYTHROCYTE COUNT / HEMATOCRIT / HEMOGLOBIN / LEUKOCYTE COUNT / LYMPHOCYTE / MEAN CORPUSCULAR HEMOGLOBIN / MEAN CORPUSCULAR HEMOGLOBIN CONCENTRATION / MEAN CORPUSCULAR VOLUME / MONOCYTE / NEUTROPHIL / NUCLEATED RED BLOOD CELLS / PLATELET COUNT: tissue Blood; for ALANINE AMINOTRANSFERASE / ALBUMIN / ALKALINE PHOSPHATASE / ASPARTATE AMINOTRANSFERASE / BLOOD UREA NITROGEN / CARBON DIOXIDE / CHLORIDE / CHOLESTEROL / CREATINE PHOSPHOKINASE / CREATININE / GLUCOSE / LACTATE DEHYDROGENASE / LIPASE / PHOSPHORUS / POTASSIUM / SODIUM / TOTAL BILIRUBIN / TOTAL PROTEIN / URIC ACID: tissue Plasma
[1] = 72 h, dose level Low, time 3 day
[2] = 120 h, dose level High, time 5 day

Structure (SMILES): CC(C)(Oc1ccc(CCNC(=O)c2ccc(Cl)cc2)cc1)C(=O)O [BEZAFIBRATE]
- ABSOLUTE BASOPHIL [1]: 0 CELLS/uL
- ABSOLUTE EOSINOPHIL [1]: 180.5 CELLS/uL
- ABSOLUTE LYMPHOCYTE [1]: 13739.67 CELLS/uL
- ABSOLUTE MONOCYTE [1]: 378 CELLS/uL
- ABSOLUTE SEGMENTED NEUTROPHIL [1]: 1401.83 CELLS/uL
- BASOPHIL [1]: 0%
- EOSINOPHIL [1]: 1.17%
- ERYTHROCYTE COUNT [1]: 5.45 x10E6/uL
- HEMATOCRIT [1]: 33.9%
- HEMOGLOBIN [1]: 13.37 G/DL
- LEUKOCYTE COUNT [1]: 15.7 x10E3/uL
- LYMPHOCYTE [1]: 87.33%
- MEAN CORPUSCULAR HEMOGLOBIN [1]: 24.55 pg
- MEAN CORPUSCULAR HEMOGLOBIN CONCENTRATION [1]: 39.42 G/DL
- MEAN CORPUSCULAR VOLUME [1]: 62.22 fL
- MONOCYTE [1]: 2.33%
- NEUTROPHIL [1]: 9.17%
- NUCLEATED RED BLOOD CELLS [1]: 0 /100WBC
- PLATELET COUNT [1]: 1134.83 x10E3/uL
- ALANINE AMINOTRANSFERASE [1]: 55.83 u/L
- ALBUMIN [1]: 4.3 G/DL
- ALKALINE PHOSPHATASE [1]: 373.17 u/L
- ASPARTATE AMINOTRANSFERASE [1]: 81 u/L
- BLOOD UREA NITROGEN [1]: 13.33 mg/dL
- CARBON DIOXIDE [1]: 28.33 mmol/L
- CHLORIDE [1]: 103.17 MEQ/L
- CHOLESTEROL [1]: 50.33 mg/dL
- CREATINE PHOSPHOKINASE [1]: 275.67 u/L
- CREATININE [1]: 0.14 mg/dL
- GLUCOSE [1]: 153.33 mg/dL
- LACTATE DEHYDROGENASE [1]: 111.33 u/L
- LIPASE [1]: 9.67 u/L
- PHOSPHORUS [1]: 10.52 mg/dL
- POTASSIUM [1]: 6.12 MEQ/L
- SODIUM [1]: 143.38 MEQ/L
- TOTAL BILIRUBIN [1]: 0.17 mg/dL
- TOTAL PROTEIN [1]: 5.68 G/DL
- URIC ACID [1]: 1.27 mg/dL
- BASOPHIL [2]: 0.3%
- EOSINOPHIL [2]: 0.42%
- ERYTHROCYTE COUNT [2]: 6.75 x10E6/uL
- HEMATOCRIT [2]: 45.06%
- HEMOGLOBIN [2]: 14.3 G/DL
- LEUKOCYTE COUNT [2]: 9.46 x10E3/uL
- LYMPHOCYTE [2]: 82.9%
- MEAN CORPUSCULAR HEMOGLOBIN [2]: 21.18 pg
- MEAN CORPUSCULAR HEMOGLOBIN CONCENTRATION [2]: 31.76 G/DL
- MEAN CORPUSCULAR VOLUME [2]: 66.76 fL
- MONOCYTE [2]: 2.08%
- NEUTROPHIL [2]: 12.9%
- PLATELET COUNT [2]: 1359.2 x10E3/uL
- ALANINE AMINOTRANSFERASE [2]: 30.4 u/L
- ALBUMIN [2]: 3.86 G/DL
- ALKALINE PHOSPHATASE [2]: 393.2 u/L
- ASPARTATE AMINOTRANSFERASE [2]: 76.8 u/L
- BLOOD UREA NITROGEN [2]: 8 mg/dL
- CHLORIDE [2]: 110.2 MEQ/L
- CHOLESTEROL [2]: 53.8 mg/dL
- CREATINE PHOSPHOKINASE [2]: 309.2 u/L
- CREATININE [2]: 0.58 mg/dL
- GLUCOSE [2]: 111.8 mg/dL
- PHOSPHORUS [2]: 13.26 mg/dL
- POTASSIUM [2]: 5.98 MEQ/L
- SODIUM [2]: 150.8 MEQ/L
- TOTAL BILIRUBIN [2]: 0.2 mg/dL
- TOTAL PROTEIN [2]: 5.94 G/DL
- BASOPHIL (dose level High, time 28 day): 0.53%
- EOSINOPHIL (dose level High, time 28 day): 0.56%
- ERYTHROCYTE COUNT (dose level High, time 28 day): 7.67 x10E6/uL
- HEMATOCRIT (dose level High, time 28 day): 46.81%
- HEMOGLOBIN (dose level High, time 28 day): 15.51 G/DL
- LEUKOCYTE COUNT (dose level High, time 28 day): 10.2 x10E3/uL
- LYMPHOCYTE (dose level High, time 28 day): 83.76%
- MEAN CORPUSCULAR HEMOGLOBIN (dose level High, time 28 day): 20.22 pg
- MEAN CORPUSCULAR HEMOGLOBIN CONCENTRATION (dose level High, time 28 day): 33.13 G/DL
- MEAN CORPUSCULAR VOLUME (dose level High, time 28 day): 61.05 fL
- MONOCYTE (dose level High, time 28 day): 1.65%
- NEUTROPHIL (dose level High, time 28 day): 12.36%
- PLATELET COUNT (dose level High, time 28 day): 1339.5 x10E3/uL
- ABSOLUTE BASOPHIL (dose level Low, time 7 day): 0 CELLS/uL
- ABSOLUTE EOSINOPHIL (dose level Low, time 7 day): 36.5 CELLS/uL
- ABSOLUTE LYMPHOCYTE (dose level Low, time 7 day): 7716 CELLS/uL
- ABSOLUTE MONOCYTE (dose level Low, time 7 day): 109.33 CELLS/uL
- ABSOLUTE SEGMENTED NEUTROPHIL (dose level Low, time 7 day): 821.5 CELLS/uL
- BASOPHIL (dose level Low, time 7 day): 0%
- EOSINOPHIL (dose level Low, time 7 day): 0.5%
- ERYTHROCYTE COUNT (dose level Low, time 7 day): 5.31 x10E6/uL
- HEMATOCRIT (dose level Low, time 7 day): 33.28%
- HEMOGLOBIN (dose level Low, time 7 day): 13.1 G/DL
- LEUKOCYTE COUNT (dose level Low, time 7 day): 8.68 x10E3/uL
- LYMPHOCYTE (dose level Low, time 7 day): 88.67%
- MEAN CORPUSCULAR HEMOGLOBIN (dose level Low, time 7 day): 24.67 pg
- MEAN CORPUSCULAR HEMOGLOBIN CONCENTRATION (dose level Low, time 7 day): 39.37 G/DL
- MEAN CORPUSCULAR VOLUME (dose level Low, time 7 day): 62.68 fL
- MONOCYTE (dose level Low, time 7 day): 1.33%
- NEUTROPHIL (dose level Low, time 7 day): 9.5%
- NUCLEATED RED BLOOD CELLS (dose level Low, time 7 day): 0 /100WBC
- PLATELET COUNT (dose level Low, time 7 day): 1167.33 x10E3/uL
- ALANINE AMINOTRANSFERASE (dose level High, time 28 day): 33.6 u/L
- ALBUMIN (dose level High, time 28 day): 4.04 G/DL
- ALKALINE PHOSPHATASE (dose level High, time 28 day): 358.2 u/L
- ASPARTATE AMINOTRANSFERASE (dose level High, time 28 day): 65.4 u/L
- BLOOD UREA NITROGEN (dose level High, time 28 day): 15.6 mg/dL
- CHLORIDE (dose level High, time 28 day): 108.6 MEQ/L
- CHOLESTEROL (dose level High, time 28 day): 43.2 mg/dL
- CREATINE PHOSPHOKINASE (dose level High, time 28 day): 130.9 u/L
- CREATININE (dose level High, time 28 day): 0.51 mg/dL
- GLUCOSE (dose level High, time 28 day): 147.9 mg/dL
- PHOSPHORUS (dose level High, time 28 day): 11.62 mg/dL
- POTASSIUM (dose level High, time 28 day): 6.83 MEQ/L
- SODIUM (dose level High, time 28 day): 152.6 MEQ/L
- TOTAL BILIRUBIN (dose level High, time 28 day): 0.2 mg/dL
- TOTAL PROTEIN (dose level High, time 28 day): 6.41 G/DL
- ALANINE AMINOTRANSFERASE (dose level Low, time 7 day): 52.17 u/L
- ALBUMIN (dose level Low, time 7 day): 4.67 G/DL
- ALKALINE PHOSPHATASE (dose level Low, time 7 day): 346.67 u/L
- ASPARTATE AMINOTRANSFERASE (dose level Low, time 7 day): 68.17 u/L
- BLOOD UREA NITROGEN (dose level Low, time 7 day): 17.67 mg/dL
- CARBON DIOXIDE (dose level Low, time 7 day): 30.83 mmol/L
- CHLORIDE (dose level Low, time 7 day): 102.83 MEQ/L
- CHOLESTEROL (dose level Low, time 7 day): 57.83 mg/dL
- CREATINE PHOSPHOKINASE (dose level Low, time 7 day): 307.17 u/L
- CREATININE (dose level Low, time 7 day): 0.24 mg/dL
- GLUCOSE (dose level Low, time 7 day): 145.67 mg/dL
- LACTATE DEHYDROGENASE (dose level Low, time 7 day): 85.5 u/L
- LIPASE (dose level Low, time 7 day): 9.33 u/L
- PHOSPHORUS (dose level Low, time 7 day): 11.1 mg/dL
- POTASSIUM (dose level Low, time 7 day): 5.85 MEQ/L
- SODIUM (dose level Low, time 7 day): 143.98 MEQ/L
- TOTAL BILIRUBIN (dose level Low, time 7 day): 0.1 mg/dL
- TOTAL PROTEIN (dose level Low, time 7 day): 6.2 G/DL
- URIC ACID (dose level Low, time 7 day): 0.62 mg/dL
